According to patent publication CN102066974A, “用于蛋白、肽和其他分子的f-18标记的改进方法和组合物” (Immunomedics Inc, priority 2008, dated 2011):
Several values for one entry are separate records, joined by “and”; a condition that tells them apart may be missing. Identical values can stand only once. One block for each compound: values may come before it. Numbered stars: 1 amine (or outer) side, 2 acyl side, 3 side chain; on linkers, the order of the positions; unused ones are H or OH. Square brackets hold non-standard residues; d marks the D form. Side chains are listed from the residue outwards. Peptide text beside a SMILES is read from it. * marks the point of attachment. NOTA(2S-Bn(4-NHCS)) = O=C(O)CN1CCN(CC(=O)O)C[C@H](Cc2ccc(NC(=S)*)cc2)N(CC(=O)O)CC1; X1 = O=C(O)CN1CCN(CC(=O)O)CC(Cc2ccc(NC(=S)*)cc2)N(CC(=O)O)CC1; DOTA = O=C(O)CN1CCN(CC(=O)O)CCN(CC(=O)*)CCN(CC(=O)O)CC1; DTPA = O=C(O)CN(CCN(CC(=O)O)CC(=O)O)CCN(CC(=O)O)CC(=O)*; NH(2-(imidazol-4-yl)ethyl) = c1ncc(CCN*)[nH]1; NOTA = O=C(O)CN1CCN(CC(=O)O)CCN(CC(=O)*)CC1; X2 = N[C@H](CC(=O)*)c1ccccc1Br; Suc = O=C(CCC(=O)[*:2])[*:1]; Dap = NC[C@H](N)C(=O)O; Aoc = NCCCCCCCC(=O)O

Experiments:
AR42J肿瘤 = assay: Biodistribution in BALB/c nude mice with s.c. AR42J tumours; type: in vivo, mouse; details: 2 h p.i.
[1] = Stability of Al18F-peptide complex in water (peptide labelling screen); type: physicochemical
LS174 T异种移植物 = assay: Biodistribution of 111In-IMP 449 and [Al18F]IMP 449 with or without TF2 in nude mice with sc LS174T xenografts; type: in vivo, mouse; details: 1 h after peptide
PC-3细胞 = type: binding; details: first experiment, inhibitor 56 to 0.44 nM
[2] = Stability of labelled peptide in human serum at 37℃, HPLC; type: in vitro ADME; details: for activity still attached to peptide: crude 18F labelling mixture (35% bound at start), pooled human serum 37℃; for 18F-labelled peptide stable in serum: purified 18F-labelled peptide
LS174T肿瘤 [3] = assay: TF2-pretargeted biodistribution in BALB/c nude mice with s.c. LS174T tumours (Example 27)
[4] = Biodistribution of unbound 18F fraction and purified [Al18F]IMP 449 in SCID mice, no pretargeting; type: in vivo, mouse; details: 1 h p.i., no bsMAb
CaPan1异种移植物 = assay: TF10-pretargeted biodistribution in nude mice with CaPan1 xenografts; type: in vivo, mouse; details: 1 h after peptide, TF10 (162μg) pretargeted 18 h before
H1和H2组胺受体 = assay: In vitro study on cell lines bearing H1 and H2 histamine receptors; type: cell-based
[5] = in vivo
RIIα二聚体 = RIIα二聚体 (Homo sapiens, UniProt P13861); details: Stokka et al. 2006; cited from earlier work
Chain of RIIα二聚体 (P13861 whole entry): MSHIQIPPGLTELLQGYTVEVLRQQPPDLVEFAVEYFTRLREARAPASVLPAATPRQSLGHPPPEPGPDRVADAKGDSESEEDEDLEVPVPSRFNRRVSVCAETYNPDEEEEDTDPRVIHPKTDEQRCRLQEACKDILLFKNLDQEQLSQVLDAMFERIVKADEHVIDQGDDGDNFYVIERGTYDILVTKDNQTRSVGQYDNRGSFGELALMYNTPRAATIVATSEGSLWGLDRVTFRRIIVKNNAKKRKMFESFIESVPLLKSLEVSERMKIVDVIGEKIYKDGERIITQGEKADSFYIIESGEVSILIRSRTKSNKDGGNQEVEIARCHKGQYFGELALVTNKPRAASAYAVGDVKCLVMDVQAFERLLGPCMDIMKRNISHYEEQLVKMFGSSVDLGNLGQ

LS174T肿瘤 [6] = assay: PET/CT image quantification (region of interest ratios); details: mouse, in vivo

- AR42J tumour uptake (AR42J肿瘤): 29.2±0.5 %ID/g
- kidney retention (AR42J肿瘤): 16.2±2.86 %ID/g
- lung uptake (AR42J肿瘤): 4.0±0.9 %ID/g
Compound: C[C@@H](O)[C@@H]1NC(=O)[C@H](CCCCN)NC(=O)[C@@H](Cc2c[nH]c3ccccc23)NC(=O)[C@H](Cc2ccccc2)NC(=O)[C@@H](NC(=O)[C@@H](Cc2ccccc2)NC(=O)CN2CCN(CC(=O)O)CCN(CC(=O)O)CC2)CSSC[C@@H](C(=O)N[C@H](CO)[C@@H](C)O)NC1=O [68Ga-IMP 466, metal not drawn]

- stability of Al18F complex relative to IMP 272 [1]: 显著更稳定
Compound: C[C@@H](NC(=O)[C@H](CNC(=O)C[C@@H](N)c1ccccc1Br)NC(=O)CN(CCN(CCN(CC(=O)O)CC(=O)O)CC(=O)O)CC(=O)O)C(=O)N[C@H](CCCCNC(=O)CNC(=O)CCC(=O)NCCc1c[nH]cn1)C(=O)N[C@H](C)C(=O)N[C@H](CCCCNC(=O)CNC(=O)CCC(=O)NCCc1c[nH]cn1)C(N)=O [IMP 375, DTPA-Dpr(2-Br-Phe-CHNH2-CH2-CO-)-D-Ala-D-Lys(HSG)-D-Ala-D-Lys(HSG)-NH2] ({DTPA}-[Dap](X2)[dA][dK]([Gly-Suc-NH(2-(imidazol-4-yl)ethyl)])[dA][dK]([Gly-Suc-NH(2-(imidazol-4-yl)ethyl)])-NH2)

Compound: C[C@@H](NC(=S)Nc1ccc(CC2CN(CC(=O)O)CCN(CC(=O)O)CCN2CC(=O)O)cc1)C(=O)N[C@H](CCCCNC(=O)CNC(=O)CCC(=O)NCCc1c[nH]cn1)C(=O)N[C@H](Cc1ccc(O)cc1)C(=O)N[C@H](CCCCNC(=O)CNC(=O)CCC(=O)NCCc1c[nH]cn1)C(N)=O (stereo partly drawn) [111In-IMP 449, metal not drawn] (X1-[dA][dK]([Gly-Suc-NH(2-(imidazol-4-yl)ethyl)])[dY][dK]([Gly-Suc-NH(2-(imidazol-4-yl)ethyl)])-NH2)
- 大肠 (large intestine) uptake, individual animals (LS174 T异种移植物; no pretargeting antibody): 0.253 %ID/g
- 大肠 (large intestine) uptake, mean (LS174 T异种移植物; no pretargeting antibody): 0.237 %ID/g
- 胃 (stomach) uptake, individual animals (LS174 T异种移植物; no pretargeting antibody): 0.329 %ID/g
- 脑 (brain) uptake, individual animals (LS174 T异种移植物; no pretargeting antibody): 0.197 %ID/g

Compound: DTPA-Dpr(DTPA)-D-Ala-D-Lys(HSG)-D-Ala-D-Lys(HSG)-NH2 [IMP 333]
- blocking of 125I-BBN binding (PC-3细胞): 不能

Compound: NOTA-ITC苄基-D-Ala-D-Lys(HSG)-D-Tyr-D-Lys(HSG)-NH2 [IMP 449]
- activity still attached to peptide ([2]; 15 min): 9.8 %
- activity still attached to peptide ([2]; 1 h): 7.6 %
- decomposition of metal-18F-peptide complex ([2]; prepared with ascorbic acid as stabiliser, serum 37℃, 4 h): 没有可检测的分解
- 18F-labelled peptide stable in serum ([2]; human serum 37℃, at least 1 h): 91 %
- 18F-labelled peptide stable in serum ([2]; human serum 37℃, at least 4 h): 76 %

Compound: NC(=O)[C@@H](CCCCNC(=O)CNC(=O)CCC(=O)NCCc1c[nH]cn1)NC(=O)[C@@H](CCC(=O)O)NC(=O)[C@@H](CCCCNC(=O)CNC(=O)CCC(=O)NCCc1c[nH]cn1)NC(=O)[C@@H](Cc1ccc(O)cc1)NC(=O)CN1CCN(CC(=O)O)CCN(CC(=O)O)CCN(CC(=O)O)CC1 [111In-IMP 288, metal not drawn] ({DOTA}-[dY][dK]([Gly-Suc-NH(2-(imidazol-4-yl)ethyl)])[dE][dK]([Gly-Suc-NH(2-(imidazol-4-yl)ethyl)])-NH2)
- kidney uptake (LS174T肿瘤 [3]; 0.1 nmol peptide, independent of bsMAb dose): 2 %ID/g

Compound: CSCC[C@H](NC(=O)[C@H](CC(C)C)NC(=O)[C@H](Cc1c[nH]cn1)NC(=O)CNC(=O)[C@@H](NC(=O)[C@H](C)NC(=O)[C@H](Cc1c[nH]c2ccccc12)NC(=O)[C@@H](NC(=O)[C@H](Cc1c[nH]c2ccccc12)NC(=O)[C@H](CCC(N)=O)NC(=O)CCCCCCCNC(=O)CN1CCN(CC(=O)O)CCN(CC(=O)O)CC1)C(C)C)C(C)C)C(N)=O [IMP 468] ({NOTA-Aoc}-QWVWAVGHLM-NH2)
- blocking of 125I-BBN binding (PC-3细胞): 阻断125I-BBN的结合

Compound: C[C@@H](NC(=S)Nc1ccc(C[C@H]2CN(CC(=O)O)CCN(CC(=O)O)CCN2CC(=O)O)cc1)C(=O)N[C@H](CCCCNC(=O)CNC(=O)CCC(=O)NCCc1c[nH]cn1)C(=O)N[C@H](Cc1ccc(O)cc1)C(=O)N[C@H](CCCCNC(=O)CNC(=O)CCC(=O)NCCc1c[nH]cn1)C(N)=O [[Al18F]IMP 449] ({NOTA(2S-Bn(4-NHCS))}-[dA][dK]([Gly-Suc-NH(2-(imidazol-4-yl)ethyl)])[dY][dK]([Gly-Suc-NH(2-(imidazol-4-yl)ethyl)])-NH2)
- 大肠 (large intestine) uptake, individual animals [4]: 0.167 %ID/g and 0.091 %ID/g and 0.094 %ID/g and 0.109 %ID/g
- 大肠 (large intestine) uptake, mean [4]: 0.115 %ID/g
- 小肠 (small intestine) uptake, individual animals [4]: 1.124 %ID/g and 1.247 %ID/g and 1.166 %ID/g and 1.624 %ID/g
- 小肠 (small intestine) uptake, mean [4]: 1.290 %ID/g
- 肌肉 (muscle) uptake, individual animals [4]: 0.077 %ID/g and 0.075 %ID/g
- 脊骨 (spine) uptake, individual animals [4]: 0.268 %ID/g
- CaPan1 tumour uptake (CaPan1异种移植物): 4.6±0.9 %ID/g
- 小肠 (small intestine) uptake, individual animals (LS174 T异种移植物; TF2 163.2μg 16 h before): 0.185 %ID/g
- 肌肉 (muscle) uptake, individual animals (LS174 T异种移植物; TF2 163.2μg 16 h before): 0.064 %ID/g
- 肝 (liver) uptake, individual animals (LS174 T异种移植物; TF2 163.2μg 16 h before): 0.196 %ID/g and 0.180 %ID/g
- 肝 (liver) uptake, mean (LS174 T异种移植物; TF2 163.2μg 16 h before): 0.172 %ID/g
- 股骨 (femur) uptake, mean (LS174 T异种移植物; TF2 163.2μg 16 h before): 0.625 %ID/g
- 肺 (lung) uptake, individual animals (LS174 T异种移植物; TF2 163.2μg 16 h before): 0.474 %ID/g and 0.230 %ID/g
- 胃 (stomach) uptake, mean (LS174 T异种移植物; TF2 163.2μg 16 h before): 0.218 %ID/g
- 脾 (spleen) uptake, individual animals (LS174 T异种移植物; TF2 163.2μg 16 h before): 0.239 %ID/g and 0.118 %ID/g and 0.140 %ID/g
- 大肠 (large intestine) uptake, individual animals (LS174 T异种移植物; no pretargeting antibody): 0.118 %ID/g
- 大肠 (large intestine) uptake, mean (LS174 T异种移植物; no pretargeting antibody): 0.072 %ID/g
- 肝 (liver) uptake, individual animals (LS174 T异种移植物; no pretargeting antibody): 0.141 %ID/g (2×) and 0.200 %ID/g and 0.185 %ID/g
- 股骨 (femur) uptake, individual animals (LS174 T异种移植物; no pretargeting antibody): 0.080 %ID/g
- 股骨 (femur) uptake, mean (LS174 T异种移植物; no pretargeting antibody): 0.100 %ID/g
- 脑 (brain) uptake, individual animals (LS174 T异种移植物; no pretargeting antibody): 0.077 %ID/g
- 脾 (spleen) uptake, mean (LS174 T异种移植物; no pretargeting antibody): 0.118 %ID/g
- LS174T tumour uptake (LS174T肿瘤 [3]; 6.0 nmol TF2 16 h before, 0.25 nmol peptide): 10.6±1.7 %ID/g
- bone uptake (LS174T肿瘤 [3]; mouse, in vivo): 0.54±0.2 %ID/g

- AR42J tumour uptake (AR42J肿瘤): 28.3±5.7 %ID/g
- blood level (AR42J肿瘤): 0.10±0.07 %ID/g
- bone uptake (AR42J肿瘤): 0.33±0.07 %ID/g
- kidney retention (AR42J肿瘤): 9.96±1.27 %ID/g
- lung uptake (AR42J肿瘤): 1.9±0.4 %ID/g
- tumour-blood ratio (AR42J肿瘤): 299±88
- AR42J tumour uptake with excess unlabelled IMP 466 (AR42J肿瘤; receptor blocking): 8.6±0.7 %ID/g
Compound: C[C@@H](O)[C@@H]1NC(=O)[C@H](CCCCN)NC(=O)[C@@H](Cc2c[nH]c3ccccc23)NC(=O)[C@H](Cc2ccccc2)NC(=O)[C@@H](NC(=O)[C@@H](Cc2ccccc2)NC(=O)CN2CCN(CC(=O)O)CCN(CC(=O)O)CC2)CSSC[C@@H](C(=O)N[C@H](CO)[C@@H](C)O)NC1=O [Al18F-IMP 466]

- histamine-related pharmacological activity in animals [5]: 没有与组胺组分相关的肽的药理活性
Compound: DOTA-D-Tyr-D-Lys(HSG)-D-Glu-D-Lys(HSG)-NH2 [IMP 288]
- antagonist or agonist activity at histamine receptors (H1和H2组胺受体): 没有拮抗或激动活性

Compound: DLIEEAASRIVDAVIEQVKAAGAY [Ht-31]
- PKA isoform preference (RIIα二聚体): 对PKA的RII同种型更大的亲和力

Compound: LEQYANQLADQIIKEATE [RIAD]
- PKA isoform preference (RIIα二聚体): 对RI更大的亲和力

Compound: FEELAWKIAKMIWSDVFQQC [PV-38]
- PKA isoform preference (RIIα二聚体): 对RI更大的亲和力

Compound: C-NETA-琥珀酰-D-Lys(HSG)-D-Tyr-D-Lys(HSG)-NH2 [IMP 467]
- decomposition of 18F-labelled peptide in serum ([2]; HLB-purified, human serum 37℃, 5 h): 没有可检测的分解

Compound: NC(=O)[C@@H](CCCCNC(=O)CNC(=O)CCC(=O)NCCc1c[nH]cn1)NC(=O)[C@@H](CCC(=O)O)NC(=O)[C@@H](CCCCNC(=O)CNC(=O)CCC(=O)NCCc1c[nH]cn1)NC(=O)[C@@H](Cc1ccc(O)cc1)NC(=O)CN1CCN(CC(=O)O)CCN(CC(=O)O)CCN(CC(=O)O)CC1 [68Ga-IMP 288, metal not drawn] ({DOTA}-[dY][dK]([Gly-Suc-NH(2-(imidazol-4-yl)ethyl)])[dE][dK]([Gly-Suc-NH(2-(imidazol-4-yl)ethyl)])-NH2)
- LS174T tumour uptake without TF2 pretargeting (LS174T肿瘤 [3]; 1 h p.i.): 0.20±0.03 %ID/g
- inflamed muscle-blood ratio (LS174T肿瘤 [3]; mouse, in vivo): 5.9±2.9
- tumour-inflamed muscle ratio (LS174T肿瘤 [3]; mouse, in vivo): 12.5±2.1
- inflamed muscle-background ratio in PET image (LS174T肿瘤 [6]): 8.9
- tumour-inflamed tissue ratio in PET image (LS174T肿瘤 [6]): 5.4
